Reference: patent publication US9682960B2 (priority 2013, dated 2017)
Read-outs that look alike come from different tables or passages of the source.

Experiments:
[1] = system: Shionogi mouse mammary carcinoma cells; assay: In vitro androgenic/antiandrogenic activity: proliferation of Shionogi cells with or without DHT; type: cell-based; details: Mus musculus
Human Androgen Receptor = Human Androgen Receptor (Homo sapiens (Human), UniProt P10275); assay: Androgen receptor assay: [3H]R1881 displacement, cytosol of HEK-293 cells transfected with hAR (hydroxylapatite assay); type: binding; details: relative binding affinity, R1881 = 100
[2] = system: castrated (CX) immature male rats; assay: Systemic androgenic (agonistic) activity in orchidectomized (CX) immature male rats; type: in vivo, rat; details: 0.1 mg/rat/po, 7 days; for CX Agonistic activity % Stimulation Bulbo: bulbocavernosus muscles weight; for CX Agonistic activity % Stimulation SV: seminal vesicles weight; for CX Agonistic activity % Stimulation Prostate: ventral prostate weight
Experimental: Immature male rats (Crl:CD(SD)Br) 22 to 24-day old weighting 60-80 g at start of treatment were obtained from Charles-River, Inc. (St-Constant, Quebec, Canada) and housed up to 5 per cage in plastic bins in a temperature (23±1° C.)- and light (12 h light/day, lights on at 7 h15)-controlled environment. The rats were fed rodent chow and tap water ad libitum. […] The day following their arrival, the designed animals were orchidectomized (CX) under Isoflurane anesthesia (Study Day 1) via the scrotal route and were then randomly assigned to groups of 3 to 5 animals. At the time of orchidectomy, one silastic implant of dihydrotestosterone (DHT; 1 cm length of pure DHT in silastic tubing having inner and outer diameter of 0.078 and 0.125 inches, respectively), was inserted subcutaneously in the dorsal area of animals assigned to the evaluation of antiandrogenic activity. In the case of intact animal experiments, the orchidectomy and the silastic implant installation are omitted.
Tested compounds were administered orally once daily for 7 days from Study Day 2 to Study Day 8 at doses generally ranging from 0.1 and 0.5 mg/animal. Compounds were either solubilized in dimethylsulfoxide (DMSO, 10% final concentration) and were administered as a solution/suspension in 0.9% NaCl-1% gelatin or were administered as suspensions in 0.4% aqueous methylcellulose. Animals of the control groups received the corresponding vehicle alone during the 7-day period. Some animals were treated with the antiandrogen Flutamide or Casodex as reference. The animals under isoflurane anesthesia were killed by cervical dislocation on day 9 of the study, approximately 24 h after the last dosing. The ventral prostate, seminal vesicles and bulbocavernosus muscles were rapidly dissected and weighed.
For calculations with intact animals, control DHT is replaced by control intact and the % stimulation is subtracted by 100%. W is the weight of the prostate, seminal vesicles or bulbocavernosus muscles. Discussion

[3] = read-out: Shionogi Antiandrogenic Activity IC50, DHT (0.3 nM)-stimulated cell number

Human Androgen Receptor, sequence (P10275 whole entry): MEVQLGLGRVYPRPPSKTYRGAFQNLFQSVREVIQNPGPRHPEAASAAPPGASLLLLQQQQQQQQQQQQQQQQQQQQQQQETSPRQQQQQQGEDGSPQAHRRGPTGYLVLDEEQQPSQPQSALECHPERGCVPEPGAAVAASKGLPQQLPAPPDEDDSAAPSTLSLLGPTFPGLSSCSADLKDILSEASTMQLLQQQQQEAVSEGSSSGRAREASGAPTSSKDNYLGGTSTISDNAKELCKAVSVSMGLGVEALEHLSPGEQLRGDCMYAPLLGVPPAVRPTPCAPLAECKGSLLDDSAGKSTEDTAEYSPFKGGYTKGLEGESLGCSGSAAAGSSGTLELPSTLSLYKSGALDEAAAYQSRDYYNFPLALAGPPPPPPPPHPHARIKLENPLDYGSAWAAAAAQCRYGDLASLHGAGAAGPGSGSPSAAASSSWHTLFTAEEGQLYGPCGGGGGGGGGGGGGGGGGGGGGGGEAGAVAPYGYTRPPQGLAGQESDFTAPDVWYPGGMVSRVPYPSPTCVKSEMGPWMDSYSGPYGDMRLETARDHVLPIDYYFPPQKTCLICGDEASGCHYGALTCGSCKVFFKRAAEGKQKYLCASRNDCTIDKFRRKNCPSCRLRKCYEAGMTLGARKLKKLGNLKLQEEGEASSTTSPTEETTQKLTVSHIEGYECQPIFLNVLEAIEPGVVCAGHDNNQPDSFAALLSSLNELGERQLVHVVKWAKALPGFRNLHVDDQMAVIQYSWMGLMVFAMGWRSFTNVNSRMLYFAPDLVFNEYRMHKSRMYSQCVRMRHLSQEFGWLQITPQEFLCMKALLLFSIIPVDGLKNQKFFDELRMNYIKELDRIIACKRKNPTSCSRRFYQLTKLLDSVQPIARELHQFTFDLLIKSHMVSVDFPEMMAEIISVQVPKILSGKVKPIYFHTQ

Compound	IC50 [1, 3] [nM]	Human Androgen Receptor Binding RBA (%) R1881 = 100 (Human Androgen Receptor; […]) [%]	CX Agonistic activity % Stimulation Bulbo [2]	CX Agonistic activity % Stimulation SV [2]	CX Agonistic activity % Stimulation Prostate [2]	Human Androgen Receptor Binding RBA (%) R1881 = 100 (Human Androgen Receptor; transfected cells)	IC50 ([1]; DHT (0.3 nM)-stimulated cell number, read-out: Shionogi Antiandrogenic Activity IC50) [nM]
Cc1c(N2C(=O)N(CCCOc3ccc(-c4cc[n+]([O-])cc4)cc3)C(C)(C)C2=O)ccc(C#N)c1Cl [EM-9305]	32.3	26.2	110 ± 5 (n = 2) %	28 ± 3 (n = 2) %	34 ± 5 (n = 2) %	–	–
Cc1c(N2C(=O)C(C)(C)N(CCCOc3ccc(-c4cccnc4)cc3F)C2=S)ccc(C#N)c1Cl [EM-8714]	97	355	78%	18%	45%	–	–
Cc1c(N2C(=O)C(C)(C)N(CCCOc3ccc(-c4ccncc4)cn3)C2=S)ccc(C#N)c1Cl [EM-8815]	80	–	163%	75%	59%	159%	–
Cc1c(N2C(=O)C(C)(C)N(CCCOc3ccc(-c4ccncc4)cc3)C2=S)ccc(C#N)c1Cl [EM-8664]	> 100	664	177%	66%	62%	–	–
Cc1c(N2C(=O)N(CCCOc3ccc4cccnc4c3)C(C)(C)C2=O)ccc(C#N)c1Cl [EM-8786]	191 ± 87	–	124 ± 32 (n = 2) %	10 ± 10 (n = 2) %	35 ± 10 (n = 2) %	8.9 ± 0.2 (n = 2) %	–
Cc1c(N2C(=O)C(C)(C)N(CCCOc3ccc(-c4ccncc4)c(C#N)c3)C2=S)ccc(C#N)c1Cl [EM-8933]	110	134	136%	43%	46%	–	–
Cc1c(N2C(=O)C(C)(C)N(CCCOc3ccc(-c4ccncc4)c(F)c3)C2=S)ccc(C#N)c1Cl [EM-8796]	188	698	168%	127%	58%	–	–
Cc1ccc2cc(OCCCN3C(=O)N(c4ccc(C#N)c(C(F)(F)F)c4)C(=O)C3(C)C)ccc2[n+]1[O-] [EM-9093]	23.1	0.6	9%	0%	0%	–	–
Cc1c(N2C(=O)C(C)(C)N(CCCOc3ccc(-c4ccncc4)cc3C(F)(F)F)C2=S)ccc(C#N)c1Cl [EM-8773]	125	28.1	123%	30%	30%	–	–
Cc1c(N2C(=O)N(CCCOc3ccc(-c4ccncc4)c(C(F)(F)F)c3)C(C)(C)C2=O)ccc(C#N)c1Cl [EM-9333]	73	64.1	93 ± 23 (n = 2) %	19 ± 5 (n = 2) %	38 ± 2 (n = 2) %	–	–
Cc1c(N2C(=O)C(C)(C)N(CCCOc3ccc4cccnc4c3)C2=S)ccc(C#N)c1Cl [EM-8730]	–	–	178%	73%	59%	140.5%	105
Cc1c(N2C(=O)C(C)(C)N(CCCOc3ccc(-c4cncnc4)cc3)C2=S)ccc(C#N)c1Cl [EM-8685]	> 100	144	136%	20%	41%	–	–
Cc1c(N2C(=O)C(C)(C)N(CCCOc3ccc4ncccc4c3)C2=S)ccc(C#N)c1Cl [EM-8728]	53.4	125.4	98%	25%	48%	–	–
